The source of these data is patent US11015061B2, “Phthalocyanine-based compound and uses of same” (YAMAMOTO CHEMICALS, INC., priority 2017, dated 2021).

Type in all cases: physicochemical
Series [1] can be described thus: Absorption spectrum of toluene solution (maximum absorption, gram absorption coefficient). As to the method:
A toluene solution of the compound obtained in this way had maximum absorption at 734.0 nm, and the gram absorption coefficient thereof was 1.21×10^5 mL/g·cm. The absorption spectrum chart thereof is illustrated in FIG. 1.

The nature of series [2]: Visible light transmittance of chloroform solution. The settings on record: spectrum converted to transmittance 10% at near-infrared maximum absorption wavelength. As to the method: The visible light transmittance of the phthalocyanine-based compound of the present invention and the comparative example compounds was measured by the following measurement method.
Each of the phthalocyanine compounds ([…]) and approximately 90 mL of chloroform were put into a 100 mL volumetric flask, and the solution in the flask was irradiated with ultrasonic waves for 30 minutes and left to stand for 2 hours at room temperature. Then, chloroform was added thereto such that the meniscus of the solution matched up with the calibration mark on the volumetric flask, thereby preparing a 10 mg/L phthalocyanine solution. The prepared solution was put into a 1 cm×1 cm cell made of PYREX (registered trademark), and the absorption spectrum thereof was measured using a spectrophotometer (produced by Hitachi, Ltd.: Spectrophotometer U-3500).
The absorption spectrum measured as above was converted such that the absorbance became 1.0, that is, the transmittance became 10% at the maximum absorption wavelength in a near-infrared range, thereby obtaining a transmission spectrum. […] At 460 nm, the transmittance of the compound of the present invention was approximately the same as the transmittance of Comparative Examples 1 and 2.

A short description of series [3]: Solubility in organic solvent (cyclopentanone). To be noted: about 10 wt % dispersion, room temperature, 0.2 μm filter; no residue = 10 wt % or more. As to the method: The solubility of the phthalocyanine compound with respect to cyclopentanone was measured by the following method.
Cyclopentanone was added to about 1 g of the phthalocyanine compound such that the total weight thereof became about 10 g, and the obtained solution was irradiated with ultrasonic waves for about 30 minutes and then stirred for 2 hours at room temperature, thereby preparing a dispersion liquid of about 10 wt %.
The dispersion liquid was filtered through a membrane filter (0.2 μm), the substance obtained by filtration was dried for 1 hour in a drier at 60° C., and then the weight of the substance obtained by filtration was measured.
The solubility of the phthalocyanine compound in a solvent is expressed by the following equation. Solubility (wt %)=(W0−W1)/W0
W0 represents the correct weight of the phthalocyanine not yet being treated, and W1 represents the weight of the substance obtained by filtration (dissolved phthalocyanine compound residue) having been dried.

Structures are written as SMILES.

For `COCCCCCCCCc1ccc(CCCCCCCCOC)c2c1-c1nc-2nc2[n-]c(nc3nc(nc4[n-]c(n1)c1c(CCCCCCCCOC)ccc(CCCCCCCCOC)c41)-c1c(CCCCCCCCOC)ccc(CCCCCCCCOC)c1-3)c1c(CCCCCCCCOC)ccc(CCCCCCCCOC)c21.[O]=[V+2]` [Comparative Example Compound (b), reference compound], the maximum absorption in series [1] was determined as 737.5 nm. The gram absorption coefficient in series [1] (at maximum absorption) came out at 105000 mL/g/cm. For the same molecule, in series [2], the “Transmittance (%) 460 nm” value was 97.8% and the “Transmittance (%) 610 nm” value came to 87.9%. In addition, in series [3], the “Solubility to cyclopentanone (wt %)” value is listed as at most 1% wt %.
